# Experiments:
# [1] = test system: EV-A71; test: Viral entry assay; format: cell-based; conditions: qRT-PCR; PTC-209HBr 3.2 μM, enviroxime 0.32 μM, pirodavir 0.64 μM; MOI 30
# [2] = test system: EV-A71; test: Viral binding assay; format: cell-based; conditions: qRT-PCR; PTC-209HBr 3.2 μM, enviroxime 0.32 μM, pirodavir 0.64 μM; MOI 30
# [3] = test system: EV-A71; test: CPE assay against EV-A71 in RD cells; format: cell-based, Enterovirus 71 (EV-A71); conditions: Enterovirus A, EVA71, RD, read-out: EC50 against EV-A71
# [4] = target: EV-A71 VP1 (Human enterovirus 71, UniProt Q66478); format: binding; conditions: MST, 500 nM VP1-EGFP
# Sequence of EV-A71 VP1 (Q66478 566-862): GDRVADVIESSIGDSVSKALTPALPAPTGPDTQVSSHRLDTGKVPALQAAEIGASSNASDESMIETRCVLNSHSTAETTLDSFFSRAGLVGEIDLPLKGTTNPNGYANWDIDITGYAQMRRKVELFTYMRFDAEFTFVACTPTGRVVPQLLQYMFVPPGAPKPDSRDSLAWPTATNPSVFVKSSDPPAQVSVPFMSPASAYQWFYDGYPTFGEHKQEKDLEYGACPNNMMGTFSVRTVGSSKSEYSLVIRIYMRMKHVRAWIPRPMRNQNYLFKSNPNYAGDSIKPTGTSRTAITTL
# [5] = target: VP1 and hSCARB2 (Human enterovirus 71, UniProt Q66478); test: IF assay of colocalization between VP1 and hSCARB2; format: cell-based; conditions: RD cells, vs untreated cells
# Sequence of VP1 and hSCARB2 (Q66478 324-565): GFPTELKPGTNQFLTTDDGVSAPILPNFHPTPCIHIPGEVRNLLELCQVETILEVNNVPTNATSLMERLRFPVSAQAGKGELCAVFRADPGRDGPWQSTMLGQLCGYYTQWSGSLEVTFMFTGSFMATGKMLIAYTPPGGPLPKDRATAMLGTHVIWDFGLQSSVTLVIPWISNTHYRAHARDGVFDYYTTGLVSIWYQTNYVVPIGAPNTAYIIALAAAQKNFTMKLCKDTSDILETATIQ
# Sequence of VP1 and hSCARB2 (Q66478 566-862): as the sequence (Q66478 566-862) above
# Sequence of VP1 and hSCARB2 (Q66478 70-323): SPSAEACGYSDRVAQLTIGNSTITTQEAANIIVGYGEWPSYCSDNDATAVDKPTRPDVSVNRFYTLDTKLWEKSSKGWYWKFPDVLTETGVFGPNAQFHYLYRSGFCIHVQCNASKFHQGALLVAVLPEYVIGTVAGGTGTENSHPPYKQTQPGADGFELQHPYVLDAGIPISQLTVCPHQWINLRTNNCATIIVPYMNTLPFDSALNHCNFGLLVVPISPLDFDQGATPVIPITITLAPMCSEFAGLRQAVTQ
# Sequence of VP1 and hSCARB2 (Q66478 2-69): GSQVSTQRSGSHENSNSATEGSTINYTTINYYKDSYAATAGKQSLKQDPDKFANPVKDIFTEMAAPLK
SMILES,Inhibition of EV-A71 entry (RNA level) [1],Inhibition of EV-A71 binding (RNA level) [2],EC50 [3] [nM],Kd VP1 [4],Colocalization between VP1 and hSCARB2 in EV-A71-infected cells [5]
"CCOC(=O)c1ccc(OCCC2CCN(c3ccc(C)nn3)CC2)cc1 [Pirodavir, pirodavir]",but not entry,dramatically inhibit,5250,–,–
"CC(C)S(=O)(=O)n1c(N)nc2ccc(/C(=N/O)c3ccccc3)cc21 [Enviroxime, enviroxime]",little inhibited,little inhibited,178,low binding affinity,decreased
